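Each compound was tested at five concentrations against cells in 96-well plates for 48 hours. Abbreviation: GI50, concentration required for 50% inhibition of growth.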 Calls of active or inactive are those of the source. No stated cut-off is given here; in the data, active = GI50 up to about 1.1 µM and inactive = higher.
Experiments:
Assay in all cases: NCI anticancer screen, dose series, 48 h
COLO 205 = system: COLO 205
IGROV-1 = system: IGROV-1
SK-MEL-28 = system: SK-MEL-28
XF498 = system: XF498
HCT-116 = system: HCT-116
HCC 2998 = system: HCC 2998
Malme-3M = system: Malme-3M
RXF 393 = system: RXF 393
SK-MEL-2 = system: SK-MEL-2
SNB-19 = system: SNB-19
786-0 = system: 786-0
HOP-18 = system: HOP-18
CAKI-1 = system: CAKI-1
K562 = system: K562
KM-20L2 = system: KM-20L2
U-251 = system: U-251
M14 = system: M14
HL-60 = system: HL-60
LXFL 529 = system: LXFL 529
MOLT-4 = system: MOLT-4
RXF 631 = system: RXF 631
M19-MEL = system: M19-MEL
OVCAR-3 = system: OVCAR-3
OVCAR-4 = system: OVCAR-4
UACC-62 = system: UACC-62
UO-31 = system: UO-31
RPMI-8226 = system: RPMI-8226
NCI-H226 = system: NCI-H226
A549 = system: A549
SF-295 = system: SF-295
TK-10 = system: TK-10
KM12 = system: KM12
SK-MEL-5 = system: SK-MEL-5
UACC-257 = system: UACC-257
SF-539 = system: SF-539
DMS-273 = system: DMS-273
EKVX = system: EKVX
DLD-1 = system: DLD-1
A498 = system: A498
ACHN = system: ACHN
SK-OV-3 = system: SK-OV-3
SW-620 = system: SW-620
NCI-H460 = system: NCI-H460
HT-29 = system: HT-29
NCI-H23 = system: NCI-H23
SN12C = system: SN12C
HOP-92 = system: HOP-92
OVCAR-8 = system: OVCAR-8
HOP-62 = system: HOP-62
SNB-78 = system: SNB-78
OVCAR-5 = system: OVCAR-5
LOX IMVI = system: LOX IMVI
CCRF-CEM = system: CCRF-CEM
HCT-15 = system: HCT-15
SNB-75 = system: SNB-75
SF-268 = system: SF-268
NCI-H522 = system: NCI-H522
SR = system: SR
DMS-114 = system: DMS-114

## O=S(=O)(C/C(=N\O)c1ccccc1)c1ccccc1
COLO 205
  GI50: > 100 µM (inactive)
IGROV-1
  GI50: > 100 µM (inactive)
SK-MEL-28
  GI50: > 100 µM (inactive)
XF498
  GI50: 59.3 µM (inactive)
HCT-116
  GI50: > 100 µM (inactive)
HCC 2998
  GI50: > 100 µM (inactive)
Malme-3M
  GI50: > 100 µM (inactive)
RXF 393
  GI50: > 100 µM (inactive)
SK-MEL-2
  GI50: > 100 µM (inactive)
SNB-19
  GI50: > 100 µM (inactive)
786-0
  GI50: > 100 µM (inactive)
HOP-18
  GI50: > 100 µM (inactive)
CAKI-1
  GI50: > 100 µM (inactive)
K562
  GI50: > 100 µM (inactive)
KM-20L2
  GI50: > 100 µM (inactive)
U-251
  GI50: > 100 µM (inactive)
M14
  GI50: > 100 µM (inactive)
HL-60
  GI50: > 100 µM (inactive)
LXFL 529
  GI50: > 100 µM (inactive)
MOLT-4
  GI50: > 100 µM (inactive)
RXF 631
  GI50: > 100 µM (inactive)
M19-MEL
  GI50: > 100 µM (inactive)
OVCAR-3
  GI50: > 100 µM (inactive)
OVCAR-4
  GI50: > 100 µM (inactive)
UACC-62
  GI50: > 100 µM (inactive)
UO-31
  GI50: > 100 µM (inactive)
RPMI-8226
  GI50: > 100 µM (inactive)
NCI-H226
  GI50: > 100 µM (inactive)
A549
  GI50: > 100 µM (inactive)
SF-295
  GI50: > 100 µM (inactive)
TK-10
  GI50: > 100 µM (inactive)
KM12
  GI50: > 100 µM (inactive)
SK-MEL-5
  GI50: > 100 µM (inactive)
UACC-257
  GI50: > 100 µM (inactive)
SF-539
  GI50: > 100 µM (inactive)
DMS-273
  GI50: > 100 µM (inactive)
EKVX
  GI50: > 100 µM (inactive)
DLD-1
  GI50: > 100 µM (inactive)
A498
  GI50: > 100 µM (inactive)
ACHN
  GI50: > 100 µM (inactive)
SK-OV-3
  GI50: > 100 µM (inactive)
SW-620
  GI50: > 100 µM (inactive)
NCI-H460
  GI50: > 100 µM (inactive)
HT-29
  GI50: > 100 µM (inactive)
NCI-H23
  GI50: > 100 µM (inactive)
SN12C
  GI50: > 100 µM (inactive)
HOP-92
  GI50: > 100 µM (inactive)
OVCAR-8
  GI50: > 100 µM (inactive)
HOP-62
  GI50: > 100 µM (inactive)
SNB-78
  GI50: > 100 µM (inactive)
OVCAR-5
  GI50: > 100 µM (inactive)
LOX IMVI
  GI50: > 100 µM (inactive)
CCRF-CEM
  GI50: > 100 µM (inactive)
HCT-15
  GI50: > 100 µM
SNB-75
  GI50: > 100 µM (inactive)
SF-268
  GI50: > 100 µM (inactive)
NCI-H522
  GI50: 57.9 µM (inactive)

## Cn1cc(C(=O)c2ccccc2)cc(C(=O)c2ccccc2)c1=O
COLO 205
  GI50: > 100 µM (inactive)
IGROV-1
  GI50: > 100 µM (inactive)
SK-MEL-28
  GI50: > 100 µM (inactive)
XF498
  GI50: > 100 µM (inactive)
HCC 2998
  GI50: > 100 µM (inactive)
Malme-3M
  GI50: > 100 µM (inactive)
RXF 393
  GI50: > 100 µM (inactive)
SK-MEL-2
  GI50: > 100 µM (inactive)
SNB-19
  GI50: > 100 µM (inactive)
786-0
  GI50: > 100 µM (inactive)
CAKI-1
  GI50: > 100 µM (inactive)
K562
  GI50: > 100 µM (inactive)
KM-20L2
  GI50: > 100 µM (inactive)
U-251
  GI50: > 100 µM (inactive)
M14
  GI50: > 100 µM (inactive)
HL-60
  GI50: > 100 µM (inactive)
LXFL 529
  GI50: > 100 µM (inactive)
MOLT-4
  GI50: > 100 µM (inactive)
RXF 631
  GI50: > 100 µM (inactive)
M19-MEL
  GI50: > 100 µM (inactive)
OVCAR-3
  GI50: > 100 µM (inactive)
OVCAR-4
  GI50: > 100 µM (inactive)
UACC-62
  GI50: > 100 µM (inactive)
UO-31
  GI50: > 100 µM (inactive)
RPMI-8226
  GI50: > 100 µM (inactive)
NCI-H226
  GI50: > 100 µM (inactive)
A549
  GI50: > 100 µM (inactive)
SF-295
  GI50: > 100 µM (inactive)
TK-10
  GI50: > 100 µM (inactive)
KM12
  GI50: > 100 µM (inactive)
SK-MEL-5
  GI50: > 100 µM (inactive)
UACC-257
  GI50: > 100 µM (inactive)
SF-539
  GI50: > 100 µM (inactive)
DMS-273
  GI50: > 100 µM (inactive)
EKVX
  GI50: > 100 µM (inactive)
DLD-1
  GI50: > 100 µM (inactive)
SR
  GI50: > 100 µM (inactive)
ACHN
  GI50: > 100 µM (inactive)
SK-OV-3
  GI50: > 100 µM (inactive)
SW-620
  GI50: > 100 µM (inactive)
NCI-H460
  GI50: > 100 µM (inactive)
HT-29
  GI50: > 100 µM (inactive)
NCI-H23
  GI50: > 100 µM (inactive)
SN12C
  GI50: > 100 µM (inactive)
HOP-92
  GI50: > 100 µM (inactive)
OVCAR-8
  GI50: > 100 µM (inactive)
HOP-62
  GI50: > 100 µM (inactive)
SNB-78
  GI50: > 100 µM (inactive)
OVCAR-5
  GI50: > 100 µM (inactive)
DMS-114
  GI50: > 100 µM (inactive)
LOX IMVI
  GI50: > 100 µM (inactive)
CCRF-CEM
  GI50: > 100 µM (inactive)
HCT-15
  GI50: > 100 µM
SNB-75
  GI50: > 100 µM (inactive)
SF-268
  GI50: > 100 µM (inactive)
NCI-H522
  GI50: > 100 µM (inactive)

— ChEMBL document CHEMBL1201862, “PubChem BioAssay data set” (2004)
